Species: Rattus norvegicus
Assay: DrugMatrix - Regimen: Daily Repeat
Type: toxicity, organism-based, Sprague-Dawley
Set-up: regimen Daily Repeat, gender Male, age 6-8 weeks
Details: in vivo, po, route oral GAVAGE, vehicle .5 % CMC; for BASOPHIL / EOSINOPHIL / ERYTHROCYTE COUNT / HEMATOCRIT / HEMOGLOBIN / LEUKOCYTE COUNT / LYMPHOCYTE / MEAN CORPUSCULAR HEMOGLOBIN / MEAN CORPUSCULAR HEMOGLOBIN CONCENTRATION / MEAN CORPUSCULAR VOLUME / MONOCYTE / NEUTROPHIL / PLATELET COUNT / ABSOLUTE BASOPHIL / ABSOLUTE EOSINOPHIL / ABSOLUTE LYMPHOCYTE / ABSOLUTE MONOCYTE / ABSOLUTE SEGMENTED NEUTROPHIL / NUCLEATED RED BLOOD CELLS: tissue Blood
[1] = 0 mg/kg, 72 h, dose level Control, time 3 day
[2] = 0 mg/kg, 72 h, tissue Plasma, dose level Control, time 3 day
[3] = 0 mg/kg, 120 h, dose level Control, time 5 day
[4] = 0 mg/kg, 120 h, tissue Plasma, dose level Control, time 5 day
[5] = 7 mg/kg, 72 h, dose level Low, time 3 day
[6] = 7 mg/kg, 72 h, tissue Plasma, dose level Low, time 3 day
[7] = 7 mg/kg, 120 h, dose level Low, time 5 day
[8] = 7 mg/kg, 120 h, tissue Plasma, dose level Low, time 5 day

NC1=NC(=O)C(c2ccccc2)O1 (stereo unspecified) [PEMOLINE]
BASOPHIL [1]: 0% | EOSINOPHIL [1]: 0.33% | ERYTHROCYTE COUNT [1]: 6.03 x10E6/uL | HEMATOCRIT [1]: 38.8% | HEMOGLOBIN [1]: 14.26 G/DL | LEUKOCYTE COUNT [1]: 10.64 x10E3/uL | LYMPHOCYTE [1]: 83.33% | MEAN CORPUSCULAR HEMOGLOBIN [1]: 23.64 pg | MEAN CORPUSCULAR HEMOGLOBIN CONCENTRATION [1]: 36.74 G/DL | MEAN CORPUSCULAR VOLUME [1]: 64.32 fL | MONOCYTE [1]: 3.33% | NEUTROPHIL [1]: 13% | PLATELET COUNT [1]: 1264.4 x10E3/uL | ALANINE AMINOTRANSFERASE [2]: 38.83 u/L | ALBUMIN [2]: 3.55 G/DL | ALKALINE PHOSPHATASE [2]: 368.33 u/L | ASPARTATE AMINOTRANSFERASE [2]: 66.17 u/L | BLOOD UREA NITROGEN [2]: 15.67 mg/dL | CHLORIDE [2]: 104.33 MEQ/L | CHOLESTEROL [2]: 76.5 mg/dL | CREATINE PHOSPHOKINASE [2]: 166.83 u/L | CREATININE [2]: 0.52 mg/dL | GLUCOSE [2]: 173.17 mg/dL | PHOSPHORUS [2]: 11.68 mg/dL | POTASSIUM [2]: 6.43 MEQ/L | SODIUM [2]: 149.5 MEQ/L | TOTAL PROTEIN [2]: 5.93 G/DL | BASOPHIL [3]: 0% | EOSINOPHIL [3]: 0% | ERYTHROCYTE COUNT [3]: 5.88 x10E6/uL | HEMATOCRIT [3]: 37.87% | HEMOGLOBIN [3]: 14.48 G/DL | LEUKOCYTE COUNT [3]: 12.43 x10E3/uL | LYMPHOCYTE [3]: 84.17% | MEAN CORPUSCULAR HEMOGLOBIN [3]: 24.65 pg | MEAN CORPUSCULAR HEMOGLOBIN CONCENTRATION [3]: 38.25 G/DL | MEAN CORPUSCULAR VOLUME [3]: 64.47 fL | MONOCYTE [3]: 4.33% | NEUTROPHIL [3]: 11.5% | PLATELET COUNT [3]: 1182.33 x10E3/uL | ALANINE AMINOTRANSFERASE [4]: 38.67 u/L | ALBUMIN [4]: 3.55 G/DL | ALKALINE PHOSPHATASE [4]: 342.5 u/L | ASPARTATE AMINOTRANSFERASE [4]: 63.33 u/L | BLOOD UREA NITROGEN [4]: 15.5 mg/dL | CHLORIDE [4]: 104 MEQ/L | CHOLESTEROL [4]: 75.5 mg/dL | CREATINE PHOSPHOKINASE [4]: 142.5 u/L | CREATININE [4]: 0.62 mg/dL | GLUCOSE [4]: 165.17 mg/dL | PHOSPHORUS [4]: 10.87 mg/dL | POTASSIUM [4]: 6.85 MEQ/L | SODIUM [4]: 150.17 MEQ/L | TOTAL PROTEIN [4]: 5.93 G/DL | ABSOLUTE BASOPHIL [5]: 0 CELLS/uL | ABSOLUTE EOSINOPHIL [5]: 0 CELLS/uL | ABSOLUTE LYMPHOCYTE [5]: 8380 CELLS/uL | ABSOLUTE MONOCYTE [5]: 87.67 CELLS/uL | ABSOLUTE SEGMENTED NEUTROPHIL [5]: 732.33 CELLS/uL | BASOPHIL [5]: 0% | EOSINOPHIL [5]: 0% | ERYTHROCYTE COUNT [5]: 5.42 x10E6/uL | HEMATOCRIT [5]: 34% | HEMOGLOBIN [5]: 13.77 G/DL | LEUKOCYTE COUNT [5]: 9.2 x10E3/uL | LYMPHOCYTE [5]: 91.33% | MEAN CORPUSCULAR HEMOGLOBIN [5]: 25.43 pg | MEAN CORPUSCULAR HEMOGLOBIN CONCENTRATION [5]: 40.5 G/DL | MEAN CORPUSCULAR VOLUME [5]: 62.87 fL | MONOCYTE [5]: 1% | NEUTROPHIL [5]: 7.67% | NUCLEATED RED BLOOD CELLS [5]: 0 /100WBC | PLATELET COUNT [5]: 1245 x10E3/uL | ALANINE AMINOTRANSFERASE [6]: 52 u/L | ALBUMIN [6]: 4.3 G/DL | ALKALINE PHOSPHATASE [6]: 415.33 u/L | ASPARTATE AMINOTRANSFERASE [6]: 90 u/L | BLOOD UREA NITROGEN [6]: 14 mg/dL | CARBON DIOXIDE [6]: 32 mmol/L | CHLORIDE [6]: 99.33 MEQ/L | CHOLESTEROL [6]: 78.67 mg/dL | CREATINE PHOSPHOKINASE [6]: 330.33 u/L | CREATININE [6]: 0.25 mg/dL | GLUCOSE [6]: 141.33 mg/dL | LACTATE DEHYDROGENASE [6]: 168.67 u/L | LIPASE [6]: 10.33 u/L | PHOSPHORUS [6]: 11.6 mg/dL | POTASSIUM [6]: 6.56 MEQ/L | SODIUM [6]: 145.47 MEQ/L | TOTAL BILIRUBIN [6]: 0.2 mg/dL | TOTAL PROTEIN [6]: 6.2 G/DL | URIC ACID [6]: 1.03 mg/dL | ABSOLUTE BASOPHIL [7]: 0 CELLS/uL | ABSOLUTE EOSINOPHIL [7]: 0 CELLS/uL | ABSOLUTE LYMPHOCYTE [7]: 13324.33 CELLS/uL | ABSOLUTE MONOCYTE [7]: 202.67 CELLS/uL | ABSOLUTE SEGMENTED NEUTROPHIL [7]: 1839.67 CELLS/uL | BASOPHIL [7]: 0% | EOSINOPHIL [7]: 0% | ERYTHROCYTE COUNT [7]: 5.15 x10E6/uL | HEMATOCRIT [7]: 31.77% | HEMOGLOBIN [7]: 12.83 G/DL | LEUKOCYTE COUNT [7]: 15.37 x10E3/uL | LYMPHOCYTE [7]: 86.67% | MEAN CORPUSCULAR HEMOGLOBIN [7]: 24.93 pg | MEAN CORPUSCULAR HEMOGLOBIN CONCENTRATION [7]: 40.47 G/DL | MEAN CORPUSCULAR VOLUME [7]: 61.63 fL | MONOCYTE [7]: 1.33% | NEUTROPHIL [7]: 12% | NUCLEATED RED BLOOD CELLS [7]: 0 /100WBC | PLATELET COUNT [7]: 1293.33 x10E3/uL | ALANINE AMINOTRANSFERASE [8]: 55.67 u/L | ALBUMIN [8]: 4.1 G/DL | ALKALINE PHOSPHATASE [8]: 349 u/L | ASPARTATE AMINOTRANSFERASE [8]: 73.67 u/L | BLOOD UREA NITROGEN [8]: 18.33 mg/dL
